We go through 26 compounds from US12459922B2 (Gilead Sciences, Inc., priority 2022, dated 2025).

In the first assay the test system is endogenous cellular STAT1 (phosphorylated at Tyr701) in NCI-H1373 cells. As to the kind of experiment: Phospho-STAT1 (Tyr701) LANCE Ultra TR-FRET Detection Assay. The assay is classed as cell-based. Conditions: 48 hours, phospho-STAT1 (Tyr701) induction, read-out: NH1373 pSTAT1 EC50.
The EC50 is the concentration needed to bring the measured effect to its halfway point. Take `Cc1cnc(-c2cc3ccn(C[C@@H]4CCC[C@H](Nc5cn[nH]c(=O)c5C(F)(F)F)C4)c(=O)c3cc2F)nc1` [Example 240]: the EC50 amounted to 4.35 nM.

The same assay, now with this note: Homo sapiens, NCI-H1373, 48 h, phospho-STAT1 (Tyr701) induction, read-out: NH1373 pSTAT1 EC50.
For the compound `O=c1[nH]ncc(N[C@H]2CCN[C@@H]2CCn2ccc3cc(-c4ncc(C(F)(F)F)cn4)c(F)cc3c2=O)c1C(F)(F)F` [Example 440, 7-fluoro-2-(2-((2R,3S)-3-((6-oxo-5-(trifluoromethyl)-1,6-dihydropyridazin-4-yl)amino)pyrrolidin-2-yl)ethyl)-6-(5-(trifluoromethyl)pyrimidin-2-yl)isoquinolin-1(2H)-one], the EC50 turned out to be 1750 nM. On the same count and under the same terms, in the case of `CNc1nc(-c2cc3ccn(CCC[C@H](C)Nc4cn[nH]c(=O)c4C(F)(F)F)c(=O)c3cc2F)ncc1C(F)(F)F` [Example 106, 7-fluoro-6-[4-(methylamino)-5-(trifluoromethyl)pyrimidin-2-yl]-2-[(4S)-4-[[6-oxo-5-(trifluoromethyl)-1H-pyridazin-4-yl]amino]pentyl]isoquinolin-1-one] it was 2.31 nM. The same measure, in the same setting: under `C[C@@H](CCCn1ccc2cc(-c3ncc4c(n3)NCCO4)c(F)cc2c1=O)Nc1cn[nH]c(=O)c1C(F)(F)F` [Example 118, 6-(7,8-dihydro-6H-pyrimido[5,4-b] [1,4]oxazin-2-yl)-7-fluoro-2-[(4S)-4-[[6-oxo-5-(trifluoromethyl)-1H-pyridazin-4-yl]amino]pentyl]isoquinolin-1-one] stands 9.84 nM; under `COc1cnc(-c2cc3ccn(CCC[C@H](C)Nc4cn[nH]c(=O)c4C(F)(F)F)c(=O)c3cc2F)nc1N1CC2(COC2)C1` [Example 205], 75.8 nM. As to `C[C@@H](CCCn1cnc2cc(-c3ncc(F)c(N)n3)c(F)cc2c1=O)Nc1cn[nH]c(=O)c1C(F)(F)F` [Example 67, 7-(4-amino-5-fluoro-pyrimidin-2-yl)-6-fluoro-3-[(4S)-4-[[6-oxo-5-(trifluoromethyl)-1H-pyridazin-4-yl]amino]pentyl]quinazolin-4-one], the EC50 is 218 nM. With `C[C@@H](CCCn1cnc2cc(-c3cnc(Cl)c(N)n3)c(F)cc2c1=O)Nc1cn[nH]c(=O)c1C(F)(F)F` [Example 352, (S)-7-(6-amino-5-chloropyrazin-2-yl)-6-fluoro-3-(4-((6-oxo-5-(trifluoromethyl)-1,6-dihydropyridazin-4-yl)amino)pentyl)quinazolin-4(3H)-one], the concentration giving a half-maximal response (EC50) stood at 64.4 nM. For the compound `Nc1nc(-c2cc3ccn(C[C@@H]4CCC[C@H](Oc5cn[nH]c(=O)c5C(F)(F)F)C4)c(=O)c3cc2F)ncc1C(F)(F)F` [Example 455, 6-(4-amino-5-(trifluoromethyl)pyrimidin-2-yl)-7-fluoro-2-(((1R,3S)-3-((6-oxo-5-(trifluoromethyl)-1,6-dihydropyridazin-4-yl)oxy)cyclohexyl)methyl)isoquinolin-1(2H)-one], the EC50 came to 38.2 nM. Same read-out and setting: in the case of `Nc1nc(-c2cc3ccn(C[C@@H]4CCC[C@H](Nc5cn[nH]c(=O)c5C(F)(F)F)C4)c(=O)c3cc2F)ccc1C(F)(F)F` [Example 251, 6-(6-amino-5-(trifluoromethyl)pyridin-2-yl)-7-fluoro-2-(((1R,3S)-3-((6-oxo-5-(trifluoromethyl)-1,6-dihydropyridazin-4-yl)amino)cyclohexyl)methyl)isoquinolin-1(2H)-one] it was 47.3 nM; in that of `CNc1nc(-c2cc3ccn(CCC[C@H](C)Nc4cn[nH]c(=O)c4C(F)(F)F)c(=O)c3cc2F)ncc1OC` [Example 214], 17.9 nM; in that of `C[C@@H](CCCn1ccc2cc(-c3ncc(C(F)F)c(N)n3)c(F)c(F)c2c1=O)Nc1cn[nH]c(=O)c1C(F)(F)F` [Example 113, 6-[4-amino-5-(difluoromethyl)pyrimidin-2-yl]-7,8-difluoro-2-[(4S)-4-[[6-oxo-5-(trifluoromethyl)-1H-pyridazin-4-yl]amino]pentyl]isoquinolin-1-one], 6.93 nM. Still for that read-out and setting: under `O=c1[nH]ncc(N[C@H](CCCn2ccc3cc(-c4ncc(C(F)(F)F)cn4)c(F)c(F)c3c2=O)c2nnc(C3CC3)o2)c1C(F)(F)F` [Example 475, 2-[(4R)-4-(5-cyclopropyl-1,3,4-oxadiazol-2-yl)-4-[[6-oxo-5-(trifluoromethyl)-1H-pyridazin-4-yl]amino]butyl]-7,8-difluoro-6-[5-(trifluoromethyl)pyrimidin-2-yl]isoquinolin-1-one] stands 10.6 nM. On the same count and under the same terms, in the case of `CC[C@@H](CCCn1cnc2cc(-c3ncc(C(F)F)c(N)n3)c(F)cc2c1=O)Nc1cn[nH]c(=O)c1C(F)(F)F` [Example 320, (S)-7-(4-amino-5-(difluoromethyl)pyrimidin-2-yl)-6-fluoro-3-(4-((6-oxo-5-(trifluoromethyl)-1,6-dihydropyridazin-4-yl)amino)hexyl)quinazolin-4(3H)-one] it was 31.2 nM. Regarding `CC(C)(O)c1cnc(-c2cc3ccn(C[C@@H]4CCC[C@H](Nc5cn[nH]c(=O)c5C(F)(F)F)C4)c(=O)c3cc2F)nc1` [Example 284, 7-fluoro-6-(5-(2-hydroxypropan-2-yl)pyrimidin-2-yl)-2-(((1R,3S)-3-((6-oxo-5-(trifluoromethyl)-1,6-dihydropyridazin-4-yl)amino)cyclohexyl)methyl)isoquinolin-1(2H)-one], the EC50 was determined as 51.7 nM. Same read-out and setting: in the case of `Cc1ccc(-c2cc3ccn(CCC[C@H](COC(F)F)Nc4cn[nH]c(=O)c4C(F)(F)F)c(=O)c3cc2F)nc1N` [Example 412, (R)-6-(6-amino-5-methylpyridin-2-yl)-2-(5-(difluoromethoxy)-4-((6-oxo-5-(trifluoromethyl)-1,6-dihydropyridazin-4-yl)amino)pentyl)-7-fluoroisoquinolin-1(2H)-one] it was 17.4 nM; in that of `CCNc1nc(-c2cc3ncn(CCC[C@H](C)Nc4cn[nH]c(=O)c4C(F)(F)F)c(=O)c3cc2F)ncc1C(F)(F)F` [Example 117, 7-[4-(ethylamino)-5-(trifluoromethyl)pyrimidin-2-yl]-6-fluoro-3-[(4S)-4-[[6-oxo-5-(trifluoromethyl)-1H-pyridazin-4-yl]amino]pentyl]quinazolin-4-one], 5.21 nM. On to `CC[C@@H](CCCn1ccc2cc(-c3ncc(C(F)F)cn3)c(F)cc2c1=O)Nc1cn[nH]c(=O)c1C(F)(F)F` [Example 345, (S)-6-(5-(difluoromethyl)pyrimidin-2-yl)-7-fluoro-2-(4-((6-oxo-5-(trifluoromethyl)-1,6-dihydropyridazin-4-yl)amino)hexyl)isoquinolin-1(2H)-one], for which the EC50 came out at 6.71 nM.

Take `O=c1[nH]ncc(N[C@H](CCCn2cnc3cc(-c4ccc5c(n4)NCCO5)c(F)cc3c2=O)COC(F)F)c1C(F)(F)F` [Example 425, (R)-3-(5-(difluoromethoxy)-4-((6-oxo-5-(trifluoromethyl)-1,6-dihydropyridazin-4-yl)amino)pentyl)-7-(3,4-dihydro-2H-pyrido[3,2-b][1,4]oxazin-6-yl)-6-fluoroquinazolin-4(3H)-one]: the EC50 amounted to 9.83 nM. Still for that read-out and setting: under `CC[C@@H](CCCn1ccc2cc(-c3ncc(OC)c(N)n3)c(F)cc2c1=O)Nc1cn[nH]c(=O)c1C(F)(F)F` [Example 343, (S)-6-(4-amino-5-methoxypyrimidin-2-yl)-7-fluoro-2-(4-((6-oxo-5-(trifluoromethyl)-1,6-dihydropyridazin-4-yl)amino)hexyl)isoquinolin-1(2H)-one] stands 3.56 nM. Regarding `Nc1cc(-c2cc3ccn(CCC[C@H](COC(F)F)Nc4cn[nH]c(=O)c4C(F)(F)F)c(=O)c3cc2F)cnc1C(F)(F)F` [Example 400, (R)-6-(5-amino-6-(trifluoromethyl)pyridin-3-yl)-2-(5-(difluoromethoxy)-4-((6-oxo-5-(trifluoromethyl)-1,6-dihydropyridazin-4-yl)amino)pentyl)-7-fluoroisoquinolin-1(2H)-one], the EC50 worked out at 56.8 nM. Same read-out and setting: under `C[C@@H](CCCn1ccc2cc(-c3ncc(C(F)(F)F)cc3C#N)c(F)cc2c1=O)Nc1cn[nH]c(=O)c1C(F)(F)F` [Example 289, (S)-2-(7-fluoro-1-oxo-2-(4-((6-oxo-5-(trifluoromethyl)-1,6-dihydropyridazin-4-yl)amino)pentyl)-1,2-dihydroisoquinolin-6-yl)-5-(trifluoromethyl)nicotinonitrile] stands 108 nM. On the same count and under the same terms, in the case of `COc1cnc(-c2cc3ncn(CCC[C@H](COC(F)F)Nc4cn[nH]c(=O)c4C(F)(F)F)c(=O)c3cc2F)nc1N` [Example 393, (R)-7-(4-amino-5-methoxypyrimidin-2-yl)-3-(5-(difluoromethoxy)-4-((6-oxo-5-(trifluoromethyl)-1,6-dihydropyridazin-4-yl)amino)pentyl)-6-fluoroquinazolin-4(3H)-one] it was 22.7 nM; in that of `Nc1nc(-c2cc3ncn(CCC[C@H](COC(F)F)Nc4cn[nH]c(=O)c4C(F)(F)F)c(=O)c3cc2F)cnc1C(F)(F)F` [Example 419, (R)-7-(6-amino-5-(trifluoromethyl)pyrazin-2-yl)-3-(5-(difluoromethoxy)-4-((6-oxo-5-(trifluoromethyl)-1,6-dihydropyridazin-4-yl)amino)pentyl)-6-fluoroquinazolin-4(3H)-one], 14.2 nM; in that of `O=c1[nH]ncc(N[C@H](CCCn2cnc3cc(-c4cnc(C5CC5)cn4)c(F)cc3c2=O)COC(F)F)c1C(F)(F)F` [Example 413, (R)-7-(5-cyclopropylpyrazin-2-yl)-3-(5-(difluoromethoxy)-4-((6-oxo-5-(trifluoromethyl)-1,6-dihydropyridazin-4-yl)amino)pentyl)-6-fluoroquinazolin-4(3H)-one], 4.59 nM. As for `C[C@@H](CCCn1ccc2cc(-c3ncc(C4CC4)c(N)n3)c(F)cc2c1=O)Nc1cn[nH]c(=O)c1C(F)(F)F` [Example 107, 6-(4-amino-5-cyclopropyl-pyrimidin-2-yl)-7-fluoro-2-[(4S)-4-[[6-oxo-5-(trifluoromethyl)-1H-pyridazin-4-yl]amino]pentyl]isoquinolin-1-one], the EC50 was found to be 2.22 nM.

`O=c1[nH]ncc(N[C@H]2CCC[C@@H](Cn3ccc4cc(-c5ncc(C(F)(F)F)cn5)c(F)c(F)c4c3=O)C2)c1C(F)(F)F` [Example 232, 7,8-difluoro-2-(((1R,3S)-3-((6-oxo-5-(trifluoromethyl)-1,6-dihydropyridazin-4-yl)amino)cyclohexyl)methyl)-6-(5-(trifluoromethyl)pyrimidin-2-yl)isoquinolin-1(2H)-one]: the EC50 was found to be 1.67 nM.
